The test deals with ERK2 enzyme (Homo sapiens (Human), UniProt P28482). Kind of test: Inhibition assay of ERK (Z'-LYTE kinase assay, Ser/Thr 3 peptide substrate). Format: biochemical. The conditions noted are these: In vitro, ERK2 enzyme 0.47 ng/μL, 100 μM ATP.
Chain of ERK2 enzyme (P28482 whole entry): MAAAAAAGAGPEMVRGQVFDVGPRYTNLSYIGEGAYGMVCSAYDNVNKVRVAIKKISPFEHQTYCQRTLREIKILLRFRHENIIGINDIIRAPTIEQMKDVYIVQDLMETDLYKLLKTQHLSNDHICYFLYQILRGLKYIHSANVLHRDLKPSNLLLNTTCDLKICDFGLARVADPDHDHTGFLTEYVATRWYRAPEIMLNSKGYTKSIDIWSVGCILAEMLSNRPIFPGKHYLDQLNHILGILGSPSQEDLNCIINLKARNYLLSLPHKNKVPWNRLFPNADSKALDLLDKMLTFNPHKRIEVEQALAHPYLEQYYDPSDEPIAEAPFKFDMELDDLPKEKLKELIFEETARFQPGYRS
By IC50 is commonly meant the concentration that inhibits the measured activity by half. Lower therefore signals greater potency. Molecule `Cc1cc(-c2n[nH]c3cc4c(cc23)CN(C(C)C2CCCC2)C(=O)N4)ccn1` (stereo not drawn) [Compound 294] showed an IC50 of less than 0.05 µM.

With `COc1ncc(-c2n[nH]c3cc4c(cc23)CN([C@@H]2CCCN(Cc3cccs3)C2)C(=O)N4)cn1` [Compound 295], the IC50 is less than 0.05 µM.

In turn, `Cc1cc(-c2n[nH]c3cc4c(cc23)CN([C@H]2CN(C(C)C)C[C@@H]2c2ccccc2)C(=O)N4)ccn1` [Compound 296] displayed an IC50 of 0.05 to 0.25 µM.

Molecule `Cn1cc(-c2n[nH]c3cc4c(cc23)CN([C@@H]2CCCN(Cc3cccs3)C2)C(=O)N4)cn1` [Compound 298] yielded a half-maximal inhibitory concentration (IC50) of less than 0.05 µM.

In the case of `Cc1cc(-c2n[nH]c3cc4c(cc23)CN([C@H]2CCN(CC(F)(F)F)C2)C(=O)N4)ccn1` [Compound 299], the half-inhibitory concentration (IC50) was less than 0.05 µM.

With `Cc1cc(-c2n[nH]c3cc4c(cc23)CN([C@H]2CCN(Cc3ccccc3)C2)C(=O)N4)ccn1` [Compound 301], the IC50 is less than 0.05 µM.

Regarding `Cc1cc(-c2n[nH]c3cc4c(cc23)CN([C@H]2CN(CC(F)(F)F)C[C@@H]2c2ccccc2)C(=O)N4)ccn1` [Compound 303], the IC50 fell in the range of 0.25 to 1 µM.

In turn, `Cc1cc(-c2n[nH]c3cc4c(cc23)CN([C@@H]2CN(CC(F)(F)F)C[C@H]2c2ccccc2)C(=O)N4)ccn1` [Compound 304] had an IC50 of less than 0.05 µM.

In turn, `Cc1cc(-c2n[nH]c3cc4c(cc23)CN([C@H]2CN(C)C[C@@H]2c2ccccc2)C(=O)N4)cc(C)n1` [Compound 307] yielded a half-inhibitory concentration (IC50) of 0.05 to 0.25 µM.

As to `Cc1cc(-c2n[nH]c3cc4c(cc23)CN([C@@H]2CN(C)C[C@H]2c2ccccc2)C(=O)N4)cc(C)n1` [Compound 308], the concentration for half-maximal inhibition (IC50) is less than 0.05 µM.

In the case of `Cc1cc(-c2n[nH]c3cc4c(cc23)CN([C@H]2CCCN(CC(F)(F)F)C2)C(=O)N4)ccn1` [Compound 309], the IC50 was 0.05 to 0.25 µM.

Regarding `Cc1cc(-c2n[nH]c3cc4c(cc23)CN([C@H]2CCN(CC(F)(F)F)C2)C(=O)N4)cc(C)n1` [Compound 310], the 50% inhibitory concentration (IC50) is less than 0.05 µM.

The molecule `Cc1cc(-c2n[nH]c3cc4[nH]c(=O)c(C(C)c5ccc(F)cc5F)cc4cc23)ccn1` (stereo not drawn) [Compound 312] showed an IC50 of 0.05 to 0.25 µM.

As to `Cc1cc(-c2n[nH]c3cc4c(cc23)CN([C@@H]2CCC[C@@H](NCc3ccccc3)C2)C(=O)N4)ccn1` [Compound 313], the concentration for half-maximal inhibition (IC50) was less than 0.05 µM.

As for `CC(c1ccccc1)c1cc2cc3c(-c4ccnc(N5CCN(C)CC5)c4)n[nH]c3cc2[nH]c1=O` (stereo not drawn) [Compound 318], the IC50 was less than 0.05 µM.

Molecule `COc1ncc(-c2n[nH]c3cc4c(cc23)CN(C2CN(Cc3ccccc3)CC(F)(F)C2)C(=O)N4)cn1` (stereo not drawn) [Compound 320] registered an IC50 of 0.05 to 0.25 µM.

Molecule `CC(c1ccccc1)c1cc2cc3c(-c4ccnnc4)n[nH]c3cc2[nH]c1=O` (stereo not drawn) [Compound 323] gave a concentration for half-maximal inhibition (IC50) of less than 0.05 µM.

In the case of `CC(c1ccccc1)c1cc2cc3c(-c4ccc(N5CCOCC5)nc4)n[nH]c3cc2[nH]c1=O` (stereo not drawn) [Compound 324], the IC50 was 0.05 to 0.25 µM.

The molecule `CC(c1ccccc1)c1cc2cc3c(-c4ccnc(N5CCOCC5)c4)n[nH]c3cc2[nH]c1=O` (stereo not drawn) [Compound 325] displayed an IC50 of less than 0.05 µM.

Take `CC(c1ccccc1)c1cc2cc3c(-c4ccncc4)n[nH]c3cc2[nH]c1=O` (stereo not drawn) [Compound 326]: the IC50 was less than 0.05 µM.

The molecule `Cc1cc(-c2n[nH]c3cc4[nH]c(=O)c(C(CO)c5ccccc5)cc4cc23)ccn1` (stereo not drawn) [Compound 328] had an IC50 of less than 0.05 µM.

The molecule `Cc1cc(-c2n[nH]c3cc4c(cc23)CN([C@@H]2CN(CC(F)(F)F)C[C@H]2C(C)(C)C)C(=O)N4)ccn1` [Compound 329] yielded a 50% inhibitory concentration (IC50) of 0.25 to 1 µM.

For the molecule `CC(c1ccccc1)c1cc2cc3c(-c4cccnc4)n[nH]c3cc2[nH]c1=O` (stereo not drawn) [Compound 330], the IC50 was less than 0.05 µM.

For the molecule `Cc1cc(-c2n[nH]c3cc4c(cc23)CN([C@@H]2CN(CC(F)(F)F)C[C@H]2C(F)(F)F)C(=O)N4)ccn1` [Compound 331], the IC50 was less than 0.05 µM.

Turning to `Cc1cc(-c2n[nH]c3cc4[nH]c(=O)c(C5CCCN(Cc6ccccc6)C5)cc4cc23)ccn1` (stereo not drawn) [Compound 332], the half-maximal inhibitory concentration (IC50) is less than 0.05 µM.

`CC(c1ccccc1)c1cc2cc3c(-c4cnn(C)c4)n[nH]c3cc2[nH]c1=O` (stereo not drawn) [Compound 333] gave an IC50 of less than 0.05 µM.

`CC(c1ccccc1)c1cc2cc3c(-c4cnc(N)nc4)n[nH]c3cc2[nH]c1=O` (stereo not drawn) [Compound 334]: the IC50 was less than 0.05 µM.

As for `Cc1ncccc1-c1n[nH]c2cc3[nH]c(=O)c(C(C)c4ccccc4)cc3cc12` (stereo not drawn) [Compound 335], the IC50 was less than 0.05 µM.

`Cc1cc(-c2n[nH]c3cc4[nH]c(=O)c(C5CCCN(Cc6cc(F)ccc6F)C5)cc4cc23)ccn1` (stereo not drawn) [Compound 336] came in with a 50% inhibitory concentration (IC50) of less than 0.05 µM.

In turn, `CC(c1ccccc1)c1cc2cc3c(NC4CCOCC4)n[nH]c3cc2[nH]c1=O` (stereo not drawn) [Compound 338] came in with a half-inhibitory concentration (IC50) of less than 0.05 µM.

For the molecule `Cc1cc(-c2n[nH]c3cc4c(cc23)CN([C@@H]2CN(CC(F)(F)F)C[C@H]2c2ccccc2)C(=O)N4)cc(C)n1` [Compound 339], the half-maximal inhibitory concentration (IC50) was less than 0.05 µM.

Take `O=C1Nc2cc3[nH]nc(-c4ccnnc4)c3cc2CN1[C@@H]1CN(CC(F)(F)F)C[C@H]1c1ccccc1` [Compound 340]: the IC50 is less than 0.05 µM.

In turn, `O=C1Nc2cc3[nH]nc(-c4cccnc4)c3cc2CN1[C@@H]1CN(CC(F)(F)F)C[C@H]1c1ccccc1` [Compound 341] yielded an IC50 of less than 0.05 µM.

`O=C1Nc2cc3[nH]nc(-c4ccncc4)c3cc2CN1[C@@H]1CN(CC(F)(F)F)C[C@H]1c1ccccc1` [Compound 342] came in with a concentration for half-maximal inhibition (IC50) of less than 0.05 µM.

On to `Cc1cnccc1-c1n[nH]c2cc3[nH]c(=O)c(C(C)c4ccccc4)cc3cc12` (stereo not drawn) [Compound 343], for which the 50% inhibitory concentration (IC50) fell in the range of 0.05 to 0.25 µM.

Molecule `CC(c1ccccc1)c1cc2cc3c(-c4ccnc(N)c4)n[nH]c3cc2[nH]c1=O` (stereo not drawn) [Compound 344] had a half-maximal inhibitory concentration (IC50) of less than 0.05 µM.

`CC(c1ccccc1)c1cc2cc3c(N4CCOCC4)n[nH]c3cc2[nH]c1=O` (stereo not drawn) [Compound 345] came in with an IC50 of less than 0.05 µM.

For `Cn1cc(-c2n[nH]c3cc4c(cc23)CN([C@@H]2CN(CC(F)(F)F)C[C@H]2c2ccccc2)C(=O)N4)ccc1=O` [Compound 346], the IC50 was less than 0.05 µM.

The molecule `CC(c1ccccc1)c1cc2cc3c(-c4ccc(=O)n(C)c4)n[nH]c3cc2[nH]c1=O` (stereo not drawn) [Compound 347] registered an IC50 of less than 0.05 µM.

As for `COc1ncc(-c2n[nH]c3cc4c(cc23)CN([C@@H]2CN(CC(F)(F)F)C[C@H]2c2ccccc2)C(=O)N4)cn1` [Compound 348], the concentration for half-maximal inhibition (IC50) was less than 0.05 µM.

`Cc1ncc(-c2n[nH]c3cc4c(cc23)CN([C@@H]2CN(CC(F)(F)F)C[C@H]2c2ccccc2)C(=O)N4)cn1` [Compound 349] gave an IC50 of less than 0.05 µM.

Regarding `Cn1nccc1-c1n[nH]c2cc3c(cc12)CN([C@@H]1CN(CC(F)(F)F)C[C@H]1c1ccccc1)C(=O)N3` [Compound 350], the IC50 was in the range of 0.25 to 1 µM.

For the molecule `Nc1ncc(-c2n[nH]c3cc4c(cc23)CN([C@@H]2CN(CC(F)(F)F)C[C@H]2c2ccccc2)C(=O)N4)cn1` [Compound 351], the half-maximal inhibitory concentration (IC50) is less than 0.05 µM.

As to `Cn1cc(-c2n[nH]c3cc4c(cc23)CN([C@@H]2CN(CC(F)(F)F)C[C@H]2c2ccccc2)C(=O)N4)cn1` [Compound 352], the IC50 was less than 0.05 µM.

As to `C[C@H](c1ccccc1)c1cc2cc3c(NC4CCOCC4)n[nH]c3cc2[nH]c1=O` [Compound 357], the IC50 was less than 0.05 µM.

The molecule `CC(c1ccccc1)c1cc2cc3c(N4CCN(C)CC4)n[nH]c3cc2[nH]c1=O` (stereo not drawn) [Compound 358] registered an IC50 of 0.05 to 0.25 µM.

`Cc1cc(-c2n[nH]c3cc4[nH]c(=O)c(C5CCCN(Cc6ccccc6)C5)cc4cc23)cc(C)n1` (stereo not drawn) [Compound 360] returned an IC50 of 0.05 to 0.25 µM.

In turn, `Cc1cc(-c2n[nH]c3cc4c(cc23)CN([C@H]2CCCN(Cc3ccccc3)C2)C(=O)N4)cc(C)n1` [Compound 363] returned a 50% inhibitory concentration (IC50) of less than 0.05 µM.

The molecule `COc1ncc(-c2n[nH]c3cc4[nH]c(=O)c(C5CCCN(Cc6ccccc6)C5)cc4cc23)cn1` (stereo not drawn) [Compound 364] gave a half-maximal inhibitory concentration (IC50) of less than 0.05 µM.

On to `COc1ncc(-c2n[nH]c3cc4c(cc23)CN([C@H]2CCCN(Cc3ccccc3)C2)C(=O)N4)cn1` [Compound 365], for which the IC50 lay in the range of 0.05 to 0.25 µM.

Take `COc1ccc(-c2n[nH]c3cc4[nH]c(=O)c(C5CCCN(Cc6ccccc6)C5)cc4cc23)cn1` (stereo not drawn) [Compound 367]: the IC50 lay in the range of 0.05 to 0.25 µM.

Turning to `COc1ccc(-c2n[nH]c3cc4c(cc23)CN([C@H]2CCCN(Cc3ccccc3)C2)C(=O)N4)cn1` [Compound 368], the IC50 was in the range of 0.05 to 0.25 µM.

`COc1ccc(-c2n[nH]c3cc4c(cc23)CN([C@H]2CCCN(Cc3ccc(F)cc3F)C2)C(=O)N4)cn1` [Compound 369] had a half-maximal inhibitory concentration (IC50) of 0.25 to 1 µM.

Molecule `COc1cc(-c2n[nH]c3cc4[nH]c(=O)c(C5CCCN(Cc6ccccc6)C5)cc4cc23)ccn1` (stereo not drawn) [Compound 370] displayed an IC50 of less than 0.05 µM.

On to `Cc1cc(-c2n[nH]c3cc4c(cc23)CN(Cc2ccccc2)C(=O)N4)ccn1` [Compound 372], for which the concentration for half-maximal inhibition (IC50) was less than 0.05 µM.

`Cc1ccc(-c2n[nH]c3cc4[nH]c(=O)c(C5CCCN(Cc6ccccc6)C5)cc4cc23)cn1` (stereo not drawn) [Compound 373] yielded a half-maximal inhibitory concentration (IC50) of 0.05 to 0.25 µM.

The molecule `COc1ccc(-c2n[nH]c3cc4c(cc23)CN([C@@H]2CN(CC(F)(F)F)C[C@H]2c2ccccc2)C(=O)N4)cn1` [Compound 374] showed an IC50 of less than 0.05 µM.

For `COc1cc(-c2n[nH]c3cc4c(cc23)CN([C@@H]2CN(CC(F)(F)F)C[C@H]2c2ccccc2)C(=O)N4)ccn1` [Compound 375], the half-inhibitory concentration (IC50) is 0.05 to 0.25 µM.

As for `Cc1cc(-c2n[nH]c3cc4c(cc23)CN([C@H](C)c2ccccc2)C(=O)N4)cc(C)n1` [Compound 377], the IC50 was less than 0.05 µM.

In turn, `Cc1cc(-c2n[nH]c3cc4[nH]c(=O)c(C5CCCN(Cc6cccs6)C5)cc4cc23)ccn1` (stereo not drawn) [Compound 378] had a half-inhibitory concentration (IC50) of 0.05 to 0.25 µM.
